Source: ChEMBL document CHEMBL4765397, “Design, synthesis and bioevaluation of novel substituted triazines as potential dual PI3K/mTOR inhibitors” (Eur J Med Chem, 2020)
Blank lines part the entries; values can stand above or below the compound they belong to. Activity calls are given as the source filed them. The calls are words filed in the database; no cut-off is given here.

Columns and labels:
[1] = biological target: Serine/threonine-protein kinase mTOR (Homo sapiens, UniProt P42345); assay: Inhibition of mTOR (unknown origin) using ULight-4E-BP1 as substrate measured after 45 mins in presence of ATP by LANCE Ultra assay
[2] = Metabolic stability in artificial gastrointestinal fluids
[3] = Metabolic stability in rat liver microsomes assessed as compound remaining measured after 45 mins; assay type: ADME, Microsome; settings: 0.75 h
[4] = test system: MDA-MB-231; assay: Antiproliferative activity against human MDA-MB-231 cells assessed as reduction in cell viability after 48 hrs by MTT assay; assay type: functional, cell-based; settings: MDA-MB-231, 48 h
[5] = test system: HepG2; assay: Antiproliferative activity against human HepG2 cells assessed as reduction in cell viability after 48 hrs by MTT assay; assay type: functional, cell-based; settings: HepG2, 48 h
[6] = test system: CNE-2; assay: Antiproliferative activity against human CNE2 cells assessed as reduction in cell viability after 48 hrs by MTT assay; assay type: functional, cell-based; settings: CNE-2, 48 h
[7] = test system: HCT-116; assay: Inhibition of PI3K/mTOR signaling in human HCT116 cells assessed as reduction in […] phosphorylation at 10 uM measured by Western blot analysis; assay type: cell-based
[8] = test system: HCT-116; assay: Antiproliferative activity against human HCT116 cells assessed as reduction in cell viability after 48 hrs by MTT assay; assay type: functional, cell-based; settings: HCT-116, 48 h
[9] = test system: HCT-116; assay: Inhibition of PI3K/mTOR signaling in human HCT116 cells assessed as reduction in AKT phosphorylation at 10 uM measured by Western blot analysis; assay type: cell-based
[10] = test system: MCF7; assay: Antiproliferative activity against human MCF-7 cells assessed as reduction in cell viability after 48 hrs by MTT assay; assay type: functional, cell-based; settings: MCF7, 48 h
[11] = test system: HeLa; assay: Antiproliferative activity against human HeLa cells assessed as reduction in cell viability after 48 hrs by MTT assay; assay type: functional, cell-based
[12] = biological target: T1, Phosphatidylinositol 4,5-bisphosphate 3-kinase catalytic subunit delta isoform (Homo sapiens, UniProt O00329); assay: Inhibition of PI3Kdelta (unknown origin) using PIP2 as substrate measured after 1 hr in presence of ATP by ADP-Glo reagent based assay
T1 sequence (O00329 whole entry): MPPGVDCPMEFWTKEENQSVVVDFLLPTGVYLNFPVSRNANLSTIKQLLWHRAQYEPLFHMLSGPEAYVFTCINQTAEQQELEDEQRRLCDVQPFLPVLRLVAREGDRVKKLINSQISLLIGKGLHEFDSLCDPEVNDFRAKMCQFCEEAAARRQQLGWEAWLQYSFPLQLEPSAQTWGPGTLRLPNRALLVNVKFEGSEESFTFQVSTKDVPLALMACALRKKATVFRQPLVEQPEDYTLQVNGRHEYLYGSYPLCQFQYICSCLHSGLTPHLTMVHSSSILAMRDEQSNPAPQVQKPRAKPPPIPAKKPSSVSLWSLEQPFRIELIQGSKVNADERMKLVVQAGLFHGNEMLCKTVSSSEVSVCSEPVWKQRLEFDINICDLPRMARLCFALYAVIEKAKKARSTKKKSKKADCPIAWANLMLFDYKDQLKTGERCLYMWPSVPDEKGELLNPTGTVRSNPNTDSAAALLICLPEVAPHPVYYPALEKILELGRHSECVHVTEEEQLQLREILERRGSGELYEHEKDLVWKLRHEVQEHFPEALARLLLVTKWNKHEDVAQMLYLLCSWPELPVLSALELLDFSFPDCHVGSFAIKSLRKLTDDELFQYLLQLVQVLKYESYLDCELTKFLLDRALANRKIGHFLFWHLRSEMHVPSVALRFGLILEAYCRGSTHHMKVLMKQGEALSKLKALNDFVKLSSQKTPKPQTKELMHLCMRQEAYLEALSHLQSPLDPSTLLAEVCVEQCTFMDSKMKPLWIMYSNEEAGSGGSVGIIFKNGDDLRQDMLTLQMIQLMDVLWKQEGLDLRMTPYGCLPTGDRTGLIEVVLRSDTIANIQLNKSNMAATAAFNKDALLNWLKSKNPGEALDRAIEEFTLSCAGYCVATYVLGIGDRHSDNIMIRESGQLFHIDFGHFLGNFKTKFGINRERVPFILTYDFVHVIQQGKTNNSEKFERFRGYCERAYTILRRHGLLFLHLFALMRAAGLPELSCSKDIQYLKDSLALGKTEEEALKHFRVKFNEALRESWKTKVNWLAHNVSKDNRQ

IC50 [1]: 11.9 µM
Compound: CS(=O)(=O)N1CCN(C(=O)c2ccc3nc(Nc4ccc(-c5nc(N6CCOCC6)nc(N6CCOCC6)n5)cc4)[nH]c3c2)CC1

IC50 [1]: 8.5 µM
Compound: NC(=O)C1CCCCN1C(=O)c1ccc2nc(Nc3ccc(-c4nc(N5CCOCC5)nc(N5CCOCC5)n4)cc3)[nH]c2c1 (centres undefined)

Stabilty [3]: Stable | IC50 [4]: 5.5 µM | IC50 [5]: 23 µM | IC50 [1]: 5.6 µM | IC50 [8]: 0.9 µM | IC50 [10]: 0.3 µM | IC50 [11]: 7.7 µM | IC50 [12]: 0.0051 µM
Compound: NC(=O)[C@H]1CCCN1C(=O)c1ccc2nc(Nc3ccc(-c4nc(N5CCOCC5)nc(N5CCOCC5)n4)cc3)[nH]c2c1
Stability [2]: Stable | IC50 [6]: 7.3 µM | inhibition [7]: Active | inhibition [9]: Active

IC50 [1]: 15.4 µM | IC50 [12]: 0.0023 µM
Compound: NC(=O)C1CCN(C(=O)c2ccc3nc(Nc4ccc(-c5nc(N6CCOCC6)nc(N6CCOCC6)n5)cc4)[nH]c3c2)CC1

IC50 [4]: 1.9 µM | IC50 [5]: 7.9 µM | IC50 [1]: 5.8 µM | IC50 [8]: 0.7 µM | IC50 [10]: 0.4 µM | IC50 [11]: 1.3 µM | IC50 [12]: 0.005 µM
Compound: C[C@H](NC(=O)c1ccc2nc(Nc3ccc(-c4nc(N5CCOCC5)nc(N5CCOCC5)n4)cc3)[nH]c2c1)C(N)=O
IC50 [6]: 12.3 µM

IC50 [1]: 10.2 µM
Compound: NC(=O)C1CCCN(C(=O)c2ccc3nc(Nc4ccc(-c5nc(N6CCOCC6)nc(N6CCOCC6)n5)cc4)[nH]c3c2)C1 (centres undefined)

Stabilty [3]: Unstable | IC50 [4]: 4.8 µM | IC50 [5]: 1.3 µM | IC50 [1]: 12.9 µM | IC50 [8]: 0.3 µM | IC50 [10]: 1.2 µM | IC50 [11]: 2.4 µM | IC50 [12]: 0.044 µM
Compound: O=C(c1ccc2nc(Nc3ccc(-c4nc(N5CCOCC5)nc(N5CCOCC5)n4)cc3)[nH]c2c1)N1CCOCC1
Stability [2]: Stable | IC50 [6]: 6.9 µM | inhibition [7]: Active | inhibition [9]: Active

IC50 [1]: 14.6 µM
Compound: CN(C)C1CCN(C(=O)c2ccc3nc(Nc4ccc(-c5nc(N6CCOCC6)nc(N6CCOCC6)n5)cc4)[nH]c3c2)CC1

Stabilty [3]: Stable | IC50 [1]: 11.8 µM
Compound: NC(=O)[C@@H]1CCCN1C(=O)c1ccc2nc(Nc3ccc(-c4nc(N5CCOCC5)nc(N5CCOCC5)n4)cc3)[nH]c2c1
Stability [2]: Stable

IC50 [1]: 13.1 µM | IC50 [12]: 0.013 µM
Compound: CN1CCN(C(=O)c2ccc3nc(Nc4ccc(-c5nc(N6CCOCC6)nc(N6CCOCC6)n5)cc4)[nH]c3c2)CC1

IC50 [1]: 5.7 µM
Compound: NC(=O)C1(N)CCN(C(=O)c2ccc3nc(Nc4ccc(-c5nc(N6CCOCC6)nc(N6CCOCC6)n5)cc4)[nH]c3c2)CC1
